Tests used:
Format in all cases: cell-based, human
[1] = system: Smad1/5 and Smad2 phosphorylation in 19-9-11 ishcat cells; experiment: Smad1/5 and Smad2 phosphorylation, western blot; conditions: 12 μM CH treatment
Procedure: Western Blot Analysis: Cells were lysed in M-PER Mammalian Protein Extraction Reagent (Pierce) in the presence of Halt Protease and Phosphatase Inhibitor Cocktail (Pierce). Proteins were separated by 10% Tris-Glycine SDS/PAGE (Invitrogen) under denaturing conditions and transferred to a nitrocellulose membrane. After blocking with 5% milk in TBST, the membrane was incubated with primary antibody overnight at 4° C. The membrane was then washed, incubated with an anti-mouse/rabbit peroxidase-conjugated secondary antibody (1:1000, Cell Signaling) at room temperature for 1 hr, and developed by SuperSignal chemiluminescence (Pierce).
To determine whether canonical Wnt signaling requires TGFβ superfamily signaling to induce cardiogenesis, the inventors quantified cTnT+ cell generation in 19-9-11 ishcat-2 cells when Activin A and BMP4 signaling antagonists were presented during the first 24 hr of cardiomyocyte induction with 12 μM CH. All samples were treated with dox at 48 hours. […] To further investigate the role of TGFβ superfamily signaling in Wnt pathway-mediated cardiogenesis the inventors assessed Smad1/5 and Smad2 phosphorylation, downstream of BMP4 and Activin A signaling respectively. As expected, substantial Smad1/5 and Smad2 phosphorylation was detected in cells that had been treated with Activin A and BMP4 (FIGS. 9B and 10A).

[2] = system: 19-9-11 shcat-2 and scramble lines; experiment: RT-PCR/qPCR gene expression in CH-treated 19-9-11 shcat-2 and scramble lines
Procedure: RT-PCR and Quantitative RT-PCR: Total RNA was prepared with the RNeasy mini kit (QIAGEN) and treated with DNase (QIAGEN). 1 μg RNA was reverse transcribed into cDNA via Oligo (dT) with Superscript III Reverse Transcriptase (Invitrogen). Real-time quantitative PCR was done in triplicate with iQ SYBR Green SuperMix (Bio-Rad). RT-PCR was done with Gotaq Master Mix (Promega) and then subjected to 2% agarose gel electrophoresis. ACTB was used as an endogenous control. To test whether induction of cardiomyocyte differentiation by GSK3 inhibitors requires β-catenin, the inventors treated the shcat-2 and scramble 19-9-11 lines with CH in mTeSR1 medium. While the shcat-2 line maintained an undifferentiated morphology, the scramble line appeared to undergo differentiation (FIG. 2E), similar to non-transduced lines treated with CH (FIGS. 1B and 2B). Induction of differentiation following CH treatment in the scramble control was further indicated by diminished SOX2 and NANOG expression at day 4 (FIG. 3C). […] After 4 days of CH treatment in mTeSR1, the percentage of cells expressing Oct4 decreased to 61% in the scramble line, while 98% of the shcat-2 cells expressed Oct4 (FIG. 3D). […] To better understand early mesoderm induction via GSK3 inhibition, the inventors analyzed expression of the early mesoderm gene T in scramble and shcat-2 19-9-11 lines. As CH concentration increased, the ratio of T expression in scramble to the shcat-2 line increased (FIG. 3E). Less than 2% of shcat-2 cells expressed brachyury upon exposure to different concentrations of CH treatment for 4 days.

[3] = system: 19-9-11 ishcat-1 and ishcat-2 cells; experiment: Growth factor free cardiac differentiation by CH followed by dox-induced β-catenin shRNA, cTnT flow cytometry
Procedure: cardiac directed differentiation via small molecules: Cells were dissociated and plated as described in the Activin/BMP4 protocol. When hPS cells maintained on Matrigel® or Synthemax plates achieved confluence, cells were treated with CH in RPMI/B27-insulin for 24 hr (day 0 to day 1). The medium was changed to RPMI/B27-insulin, followed by 2 μg/ml dox treatment at different times between day 1 and day 5 for transgenic cell lines. For genetically unmodified lines, 5 μM IWP2 (Tocris) or IWP4 (Stemgent) was added at day 3 and removed during the day 5 medium change. Cells were maintained in the RPMI/B27 starting from day 7, with the medium changed every 3 days. Flow Cytometry: Cells were dissociated into single cells and then fixed with 1% paraformaldehyde for 20 min at room temperature and stained with primary and secondary antibodies in PBS plus 0.1% Triton X-100 and 0.5% BSA. For the cell proliferation assay, a 17-hour pulse of BrdU was performed to identify dividing cardiomyocytes (Zhang et al., Circ. Res. 104, e30-41 (2009)). Data were collected on a FACSCaliber flow cytometer (Beckton Dickinson) and analyzed using FlowJo. Our results and prior studies (Ren et al., J. Mol. Cell. Cardiol. 51:280-287 (2011); Tran et al., Stem Cells 27:1869-1878 (2009); Wang et al., A.C.S. Chem. Biol. 6, 192-197 (2011); […] et al., Circ Res. 109:360-364 (2011)) indicate that induction of canonical Wnt signaling early and suppression of canonical Wnt signaling at later stages of differentiation enhance yield of cardiomyocytes. The inventors next sought to determine whether modulating Gsk3 and canonical Wnt signaling alone was sufficient to induce cardiogenesis. Undifferentiated hPS cells were cultured in RPMI/B27-insulin medium containing CH. CH was removed by medium exchange at day 1 and dox was added to the medium at various time points between […] and day 4. At day 5, the medium was replaced with RPMI/B27-insulin (FIG. 6A) and cardiomyocyte differentiation was assessed at day 15 by the percentage and yield of cTNT and/or MF20 expressing cells. In the 19-9-11 […]-1 line, 12 μM CH produced the most cTNT+ cells at day 15 without additional dox-induced β-catenin knockdown (FIG. 7A). The inventors then investigated the effect of the timing of dox treatment following addition of 12 μM CH. Addition of dox 36 hours following initiation of differentiation generated 95% cTNT+ cells with yields of approximately 15 cTNT+ cells per input iPSC (FIGS. 6B and 7B). A high yield of cTNT+ cells was also obtained using 19-9-11 […]-2 and three additional hPS cell lines (IMR90C4, 6-9-9, and H9) transduced with inducible β-catenin shRNA […]-1 (FIG. 7C).

[4] = 12 μM CH, dox added 36 hours following initiation of differentiation, day 15

`Cc1c[nH]c(-c2cnc(NCCNc3ccc(C#N)cn3)nc2-c2ccc(Cl)cc2Cl)n1` [CH] was tested, and the “Smad1/5 and Smad2 activation” value [1] was “levels comparable to those induced by Activin A and BMP4”, the “expression of mesendoderm and early mesoderm genes MIXL1, GSC, T, WNT3A and MSX1” value ([2]; 12 μM CH for 4 days, scramble versus shcat-2) was “emerged in CH-treated scramble cells but not CH-treated shcat-2 cells” and the “ratio of T expression in scramble to the shcat-2 line” value ([2]; increasing CH concentration, 2 days, qPCR) was “increased”. The “SOX2 and NANOG expression” value ([2]; scramble control, CH treatment, day 4) was “diminished”, the “SOX2 and NANOG expression” value ([2]; shcat-2 cells treated with CH) was “No significant differences” and the purity of cardiomyocytes ([3]; 12 μM CH followed by dox treatment at 36 hours, >50 independent experiments) was greater than 90%. The “cTNT+ cells” value [3, 4] was 95%, the “yield of cTNT+ cells” value [3, 4] was “approximately 15 cTNT+ cells per input iPSC” and the “CH concentration that produced the most cTNT+ cells at day 15” value ([3]; 19-9-11 ishcat-1 line, without dox-induced β-catenin knockdown) was 12 µM.
